Assays:
Corynespora cassiicola [1] = assay: Control of Corynespora cassiicola (target leaf spot) in vitro: inhibition of fungal growth in nutrient broth (PDB); format: cell-based; settings: 24° C., 3-4 days, photometric 620 nm, read-out: control of Corynespora cassiicola (inhibition of growth vs untreated control)
Protocol: Conidia of the fungus from cryogenic storage were directly mixed into nutrient broth (PDB potato dextrose broth). A DMSO solution of the test compounds was placed into a microtiter plate (96-well format) and the nutrient broth containing the fungal spores was added to it. The test plates were incubated at 24° C. and the inhibition of growth (% control of Corynespora cassiicola) was determined photometrically after 3-4 days at 620 nm. The activity of a compound is derived by comparing the inhibition of growth in the treated test solution to the growth in the untreated check. The concentration of the compounds was 6.7, 2.2, 0.74, 0.25, and 0.082 ppm.

Corynespora cassiicola [2] = assay: Control of Corynespora cassiicola (target leaf spot) on soybean plants under field conditions; format: in vivo; settings: for Control vs. untreated (%) / Mean severity (percentage of leaf area covered by disease lesions): three foliar applications, soybean, Brazil
Protocol: Tested fungicides were formulated and applied to soybean plants in a foliar broadcast spray using a handheld horizontal boom sprayer. Three applications were made over the course of the growing season, starting 45 days after crop emergence, with following applications at 14-day intervals. Trials were conducted across five locations in Brazil. Assessments of severity of infection from Corynespora cassiicola were made at weekly intervals, based on the percentage of leaf area covered by disease lesions. The results reflect the median scores for these assessments, excluding those with less than 10% severity in the untreated checks to limit the confounding effect of low disease pressure. Values are expressed as the mean disease severity score and as the percentage control relative to the untreated. The comparison is made between Compound A-1.3 at 35 grams active ingredient per hectare and the commercial compounds trifloxystrobin and picoxystrobin at their label rate of 60 grams active ingredient per hectare.

[3] = Trial 1, 60 g/ha, untreated check 24.9
[4] = Trial 2, 60 g/ha, untreated check 18.8

SMILES	inhibition of growth at 2.2 ppm (Corynespora cassiicola [1])	inhibition of growth at 6.7 ppm (Corynespora cassiicola [1])	Control vs. untreated (%) (Corynespora cassiicola [2]; Trial 1, 60 g/ha)	Mean severity (percentage of leaf area covered by disease lesions) (Corynespora cassiicola [2]; [3])	Control vs. untreated (%) (Corynespora cassiicola [2]; Trial 2, 60 g/ha)	Mean severity (percentage of leaf area covered by disease lesions) (Corynespora cassiicola [2]; [4])	also measured
COC(=O)NCc1cc(-c2ccn(-c3c(F)cc(C(C)C)cc3F)n2)ccc1C [Compound A-1.1, methyl N-[[5-[1-(2,6-difluoro-4-isopropyl-phenyl)pyrazol-3-yl]-2-methyl-phenyl]methyl]carbamate]	≥ 50%	≥ 50%					
COC(=O)NCc1cc(-c2ccn(-c3c(F)cc(C4CC4)cc3F)n2)ccc1C [Compound A-1.3, methyl N-[[5-[1-(4-cyclopropyl-2,6-difluoro-phenyl)pyrazol-3-yl]-2-methyl-phenyl]methyl]carbamate]	≥ 50%	≥ 70%					Control vs. untreated (%) (Corynespora cassiicola [2]; Trial 1, 35 g/ha): 63.9%; Mean severity (percentage of leaf area covered by disease lesions) (Corynespora cassiicola [2]; Trial 1, 35 g/ha, untreated check 24.9): 9.9; Control vs. untreated (%) (Corynespora cassiicola [2]; Trial 2, 35 g/ha): 68.0%; Mean severity (percentage of leaf area covered by disease lesions) (Corynespora cassiicola [2]; Trial 2, 35 g/ha, untreated check 18.8): 5.3; control of Corynespora cassiicola compared with commercial compounds, in words (Corynespora cassiicola [2]; field trials 1 and 2, 35 g/ha vs trifloxystrobin and picoxystrobin at 60 g/ha): better control of Corynespora cassiicola than both trifloxystrobin and picoxystrobin; inhibition of growth at 0.74 ppm (Corynespora cassiicola [1]; 0.74 ppm): ≥ 50%
CO/C=C(/C(=O)OC)c1ccccc1COc1cccc(C(F)(F)F)n1 [Picoxystrobin, picoxystrobin]			45.9%	14.8	20.0%	14.0	
CO/C=C(/C(=O)OC)c1ccccc1Oc1cc(Oc2ccccc2C#N)ncn1 [azoxystrobin]		50%					
COC(=O)N(OC)c1ccccc1COc1ccn(-c2ccc(Cl)cc2)n1 [pyraclostrobin]		50%					
CON=C(C(=O)OC)c1ccccc1CON=C(C)c1cccc(C(F)(F)F)c1 [trifloxystrobin]		50%	35.3%	18.1	6.7%	16.0	
